target: T1, human GPR40 (Homo sapiens, UniProt O14842); experiment: Inositol Phosphate Turnover (IP1) Assay 3; format: cell-based; conditions: HEK cells stably expressing human GPR40
T1 construct: expressed in transfected cells; host or cells: HEK cells stably expressing the aequorin reporter
Outline: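 HEK cells stably expressing human GPR40, plated 16 h before, were treated with compound for 60 min at 37 °C in stimulation buffer. IP1 measured by HTRF (665/620 nm ratio) against an IP1 standard curve; activity normalized to a reference compound, EC50 from 4-parameter fit.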

T1 sequence (O14842 whole entry): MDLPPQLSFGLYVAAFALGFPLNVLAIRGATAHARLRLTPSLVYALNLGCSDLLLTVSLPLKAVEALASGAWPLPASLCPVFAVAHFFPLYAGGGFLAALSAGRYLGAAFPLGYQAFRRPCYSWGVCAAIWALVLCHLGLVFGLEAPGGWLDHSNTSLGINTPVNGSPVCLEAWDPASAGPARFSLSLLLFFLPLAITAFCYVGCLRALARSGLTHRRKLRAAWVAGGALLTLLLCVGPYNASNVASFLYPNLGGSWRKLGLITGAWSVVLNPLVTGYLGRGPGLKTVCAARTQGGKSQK

Row | Structure (SMILES) | EC50
1 | COc1cc(-c2ccc(C3CCc4ccc([C@H](C5CC5)[C@H](C)C(=O)O)cc4O3)cc2C(CN2CCCC2)OC)ccn1 (single isomer, unassigned) [Example 178] | 136 nM
2 | COc1cc(-c2ccc(C3CCc4ccc([C@H](C5CC5)[C@H](C)C(=O)O)cc4O3)cc2CN2CCCC2(C)C)ccn1 (some centres unmarked) [Example 281] | 5.7 nM
3 | COc1cc(-c2ccc(C3CCc4ccc([C@H](C5CC5)[C@H](C)C(=O)O)cc4O3)cc2CN(C)C(C)C)c(F)cn1 (some centres unmarked) [Example 254] | 1 nM
4 | COc1cc(-c2ccc(C3CCc4ccc([C@H](C5CC5)[C@H](C)C(=O)O)cc4O3)c(CN3CCC[C@H]3C)c2)ccn1 (single isomer, unassigned) [Example 119b] | 4.2 nM
5 | COc1cc(-c2ccc(C3CCc4ccc([C@H](C5CC5)[C@H](C)C(=O)O)cc4O3)c(CN3[C@H](C)CC[C@H]3C)c2)ccn1 (single isomer, unassigned) [Example 116b] | 1 nM
6 | COc1cc(-c2ccc(C3CCc4ccc([C@H](C5CC5)[C@H](C)C(=O)O)cc4O3)cc2CN(C)C(C)(C)C)ccn1 (some centres unmarked) [Example 234] | 21 nM
7 | COc1cc(-c2ccc(C3CCc4ccc([C@H](C5CC5)[C@H](C)C(=O)O)c(F)c4O3)cc2CN2CCCC2)c(F)cn1 (single isomer, unassigned) [Example 198] | 4.7 nM
8 | COc1cc(-c2ccc(C3CCc4ccc([C@H](C5CC5)[C@H](C)C(=O)O)cc4O3)cc2CN2CCCCC23CC3)ccn1 (single isomer, unassigned) [Example 222] | 1.3 nM
9 | CCN(CC)Cc1cc(C2CCc3ccc([C@H](C4CCC4)[C@H](C)C(=O)O)cc3O2)ccc1-c1cc(OC)ncc1F (single isomer, unassigned) [Example 99] | 0.18 nM
10 | COc1cc(-c2ccc(C3CCc4ccc([C@H](C5CC5)[C@H](C)C(=O)O)cc4O3)c(CN3CCCCC3(C)C)c2)c(F)cn1 (single isomer, unassigned) [Example 128a] | 0.07 nM
11 | CCN(CC)Cc1cc(C2CCc3ccc([C@H](C4CC4)[C@H](C)C(=O)O)cc3O2)ncc1-c1cc(OC)ncc1F (single isomer, unassigned) [Example 86] | 1.4 nM
12 | COc1cc(-c2ccc(C3CCc4ccc([C@H](C5CC5)[C@H](C)C(=O)O)cc4O3)c(CN(C(C)C)C(C)C)c2)c(F)cn1 (single isomer, unassigned) [Example 126a] | 0.05 nM
13 | COc1cc(-c2ccc(C3CCc4ccc([C@H](C5CC5)[C@H](C)C(=O)O)cc4O3)c(CN3[C@H](C)CC[C@H]3C)c2)ccn1 (single isomer, unassigned) [Example 116d] | 387 nM
14 | CCC1CCCCN1Cc1cc(C2CCc3ccc(C(C4CC4)C(C)C(=O)O)cc3O2)ccc1-c1ccnc(OC)c1 (single isomer, unassigned) [Example 258a] | 1.7 nM
15 | COc1cc(-c2ccc(C3CCc4ccc([C@H](C5CC5)[C@H](C)C(=O)O)cc4O3)c(CN3CCCCC34CC4)c2)ccn1 (single isomer, unassigned) [Example 223] | 0.05 nM
16 | COc1cc(-c2ccc(C3CCc4ccc([C@H](C5CC5)[C@H](C)C(=O)O)cc4O3)cc2CN2C3CCCC2CC3)ccn1 (some centres unmarked) [Example 290] | 22 nM
17 | COc1cc(-c2ccc(C3CCc4ccc([C@H](C5CC5)[C@H](C)C(=O)O)cc4O3)cc2CN2[C@@H](C)CCC[C@@H]2C)ccn1 (some centres unmarked) [Example 241] | 1.1 nM
18 | COc1cc(-c2ccc(C3CCc4ccc([C@H](C5CC5)[C@H](C)C(=O)O)cc4O3)nc2CN(C(C)C)C(C)C)ccn1 (some centres unmarked) [Example 91] | 467 nM
19 | COc1cc(-c2ccc(C3CCc4ccc([C@H](C5CC5)[C@@H](C)C(=O)O)cc4O3)cc2CN(C)C(C)(C)C)c(F)cn1 (some centres unmarked) [Example 227] | 14 nM
20 | CCN(Cc1cc(C2CCc3ccc([C@H](C4CC4)[C@H](C)C(=O)O)cc3O2)c(F)cc1-c1ccnc(OC)c1)C(C)C (single isomer, unassigned) [Example 186] | 7.9 nM
21 | COc1cc(-c2ccc(C3CCc4ccc([C@H](C5CC5)[C@H](C)C(=O)O)cc4O3)c(CN(C)C(C)(C)C)c2)ccn1 (single isomer, unassigned) [Example 114b] | 250 nM
22 | COc1cc(-c2ccc(C3CCc4ccc([C@H](C5CC5)[C@H](C)C(=O)O)cc4O3)cc2CN2CCC3CC32)c(F)cn1 (single isomer, unassigned) [Example 256b] | 0.9 nM
23 | COc1cc(-c2ccc(C3CCc4ccc([C@H](C5CCC5)[C@H](C)C(=O)O)cc4O3)cc2CN2CCCC2C)c(F)cn1 (some centres unmarked) [Example 102] | 0.07 nM
24 | COc1cc(-c2ccc(C3CCc4ccc([C@H](C5CC5)[C@H](C)C(=O)O)cc4O3)cc2CN2[C@H]3CC[C@@H]2CC3)ccn1 (some centres unmarked) [Example 289] | 72 nM
25 | COc1cc(-c2ccc(C3CCc4ccc([C@H](C5CC5)[C@H](C)C(=O)O)cc4O3)cc2CN2[C@H](C)CCC[C@H]2C)c(F)cn1 (some centres unmarked) [Example 257] | 0.4 nM

Row | Structure (SMILES) | EC50
26 | COc1cc(-c2ccc(C3CCc4ccc([C@H](C5CC5)[C@H](C)C(=O)O)cc4O3)cc2CN2[C@H](C)CCC[C@H]2C)ccn1 (some centres unmarked) [Example 240] | 1.4 nM
27 | CCN(CC)Cc1cc(C2CCc3ccc([C@H](C4CCC4)[C@H](C)C(=O)O)cc3O2)ccc1-c1cc(OC)ncc1F (single isomer, unassigned) [Example 98] | 0.09 nM
28 | COc1cc(-c2ccc([C@H]3CCc4ccc([C@H](C5CC5)[C@H](C)C(=O)O)cc4O3)cc2CN2CCCCC23CC3)ccn1 [Example 176] | 0.2 nM
29 | CCN(C)Cc1cc(C2CCc3ccc([C@H](C4CC4)[C@H](C)C(=O)O)cc3O2)ccc1-c1cc(OC)ncc1C#N (single isomer, unassigned) [Example 196] | 7.2 nM
30 | COc1cc(-c2cc(F)c(C3CCc4ccc([C@H](C5CC5)[C@H](C)C(=O)O)cc4O3)cc2CN2CCCCC23CC3)ccn1 (single isomer, unassigned) [Example 187] | 0.4 nM
31 | COc1cc(-c2ccc(C3CCc4ccc([C@H](C5CC5)[C@H](C)C(=O)O)cc4O3)c(CN3[C@H](C)CC[C@H]3C)c2)ccn1 (single isomer, unassigned) [Example 116c] | 1000 nM
32 | COc1cc(-c2ccc(C3CCc4ccc([C@H](C5CC5)[C@H](C)C(=O)O)cc4O3)c(CN3CCCC3(C)C)c2)ccn1 (mixture of isomers) [Example 111, (2S,3R)-3-cyclopropyl-3-(2-(2-((2,2-dimethylpyrrolidin-1-yl)methyl)-4-(2-methoxypyridin-4-yl)phenyl)chroman-7-yl)-2-methylpropanoic acid] | 0.7 nM
33 | COc1cc(-c2ccc(C3CCc4ccc([C@H](C5CC5)[C@H](C)C(=O)O)cc4O3)cc2CN2CCC[C@H]2C)ccn1 (some centres unmarked) [Example 280] | 16 nM
34 | CCOc1cc(-c2ccc(C3CCc4ccc([C@H](C5CC5)[C@H](C)C(=O)O)cc4O3)cc2CN(CC)CC)c(Cl)cn1 (single isomer, unassigned) [Example 215] | 6 nM
35 | COc1cc(-c2ccc(C3CCc4ccc([C@H](C5CC5)[C@H](C)C(=O)O)cc4O3)cc2CN(C)C(C)(C)C)ccn1 (some centres unmarked) [Example 288] | 21 nM
36 | COc1cc(-c2ccc(C3CCc4ccc([C@H](C5CC5)[C@H](C)C(=O)O)cc4O3)cc2CN2CCC3(CC2)CC3)c(F)cn1 (some centres unmarked) [Example 261] | 0.6 nM
37 | COc1cc(-c2ccc(C3CCc4ccc([C@H](C5CC5)[C@H](C)C(=O)O)cc4O3)cc2CN2CC3CC3C2)c(C#N)cn1 (stereo partly drawn) [Example 191, (2S, 3R)-3-(2-(3-(3-azabicyclo[3.1.0]hexan-3-ylmethyl)-4-(5-cyano-2-methoxypyridin-4-yl)phenyl)chroman-7-yl)-3-cyclopropyl-2-methylpropanoic acid] | 1.9 nM
38 | COc1cc(-c2ccc(C3CCc4ccc([C@H](C5CC5)[C@H](C)C(=O)O)cc4O3)c(CN3[C@H](C)CC[C@@H]3C)c2)ccn1 (single isomer, unassigned) [Example 122b] | 190 nM
39 | CCN(Cc1cc(-c2cc(OC)ncc2F)ccc1C1CCc2ccc([C@H](C3CC3)[C@H](C)C(=O)O)cc2O1)C(C)C (mixture of isomers) [Example 124] | 0.3 nM
40 | COc1cc(-c2ccc(C3CCc4ccc([C@H](C5CC5)[C@H](C)C(=O)O)cc4O3)nc2CN2CCCC2)c(F)cn1 (some centres unmarked) [Example 90] | 9.5 nM
41 | COc1cc(-c2ccc(C3CCc4ccc([C@H](C5CCC5)[C@H](C)C(=O)O)cc4O3)cc2CN2CCCCC2)c(F)cn1 (single isomer, unassigned) [Example 104] | 1.1 nM
42 | C[C@H](C(=O)O)[C@H](c1ccc2c(c1)OC(c1ccc(-c3cc(O)ncc3F)c(CN(C)C3CCOC3)c1)CC2)C1CC1 (some centres unmarked) [Example 268a] | 0.6 nM
43 | COc1cc(-c2ccc(C3CCc4ccc([C@H](C5CC5)[C@H](C)C(=O)O)c(F)c4O3)cc2CN2CCC[C@H]2C)c(F)cn1 (single isomer, unassigned) [Example 211] | 2.1 nM
44 | COc1ccc(F)c(-c2ccc(C3CCc4ccc([C@H](C5CC5)[C@H](C)C(=O)O)cc4O3)cc2CN2CCCCC23CC3)n1 (single isomer, unassigned) [Example 189] | 5.1 nM
45 | COc1cc(-c2ccc(C3CCc4ccc([C@H](C5CC5)[C@H](C)C(=O)O)cc4O3)cc2CN2CCCCC23CCC3)c(F)cn1 (some centres unmarked) [Example 262] | 0.2 nM
46 | COc1cc(-c2ccc(C3CCc4ccc([C@H](C5CC5)[C@H](C)C(=O)O)cc4O3)c(CN(C(C)C)C(C)C)c2)c(F)cn1 (single isomer, unassigned) [Example 126b] | 2.7 nM
47 | CCN(CC)Cc1cc(C2CCc3ccc([C@H](C4CC4)[C@H](C)C(=O)O)c(F)c3O2)ccc1-c1cc(OC)ncc1F (single isomer, unassigned) [Example 204] | 2.1 nM
48 | COc1cc(-c2ccc(C3CCc4ccc([C@H](C5CC5)[C@H](C)C(=O)O)cc4O3)cc2CN2CCCCC23CC3)ccn1 (some centres unmarked) [Example 276] | 0.2 nM
49 | COc1cc(-c2ccc(C3CCc4ccc([C@H](C5CCC5)[C@H](C)C(=O)O)cc4O3)cc2CN2CCCC2(C)C)c(F)cn1 (single isomer, unassigned) [Example 108] | 0.1 nM
50 | COc1cc(-c2ccc(C3CCc4ccc([C@H](C5CC5)[C@H](C)C(=O)O)cc4O3)c(CN3CCCCC3(C)C)c2)c(F)cn1 (mixture of isomers) [Example 128] | 0.16 nM

Source: US10968193B2, “Antidiabetic bicyclic compounds” (Merck Sharp & Dohme Corp., priority 2014, dated 2021)
